From PubChem BioAssay (NCI)
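Step 1: Grow cells in 96-well plates. Step 2: Expose to compound for 48 hours at 5 concentrations. Step 3: Interpolate endpoints linearly; if unreached, use highest concentration. The concentration for full growth arrest is given as TGI.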

What was measured:
Assay in all cases: NCI anticancer screen, dose series, 48 h
[1] = tested on: CCRF-CEM leukemia
[2] = tested on: HCT-116 colon
[3] = tested on: HOP-62 NSCLC
[4] = tested on: HT29 colon
[5] = tested on: KM12 colon
[6] = tested on: LXFL 529 NSCLC
[7] = tested on: MALME-3M melanoma
[8] = tested on: OVCAR-3 ovarian
[9] = tested on: RPMI-8226 leukemia
[10] = tested on: RXF 393 renal
[11] = tested on: SK-OV-3 ovarian
[12] = tested on: SN12C renal
[13] = tested on: SNB-75 CNS
[14] = tested on: SW-620 colon
[15] = tested on: UACC-62 melanoma
[16] = tested on: UO-31 renal
[17] = tested on: XF 498 CNS
[18] = tested on: A498 renal
[19] = tested on: HS 578T breast
[20] = tested on: NCI/ADR-RES ovarian

Measured: TGI

O=C1C(Cl)N(c2ccc([N+](=O)[O-])cc2)C1c1c[nH]c2ccccc12 (centres undefined)
not listed: [18] | [19] | [20]
> 100 µM: all other assays above

O=c1c2cccnc2oc2c(Cl)cc(-c3nn[nH]n3)cc12
not listed: [6] | [9] | [17]
> 100 µM: all other assays above
